Results taken from patent publication US6046218A, “Pyridine derivative and medicament containing the same as an effective ingredient” (SS Pharmaceutical Co., Ltd., priority 1996, dated 2000).
Where a name gives a salt, the structure may show the parent alone.

Legend:
IgM production = assay: Test 4 (comparison): inhibition of IgM production; type: in vivo, Balb/c mouse; conditions: 100 mg/kg orally once a day; for inhibition at 100 mg/kg: Mus musculus, po, Day 1 to Day 10, spleen cells, DNP-BSA 5 μg/ml, 24 hours, read-out: Inhibition rate of IgM production; for effects on the production of IgM: in words
Method: (§1) Test 4: Test on the inhibition of IgE production
(§2) To a Balb/c mouse, the DNP-labeled ascaris antigen (5 μg) and Alum (1 mg) were intraperitoneally administered on Day 1 and Day 6 to sensitize the mouse with the antibody. From Day 1 to Day 10, a medicament was orally administered at a dose of 100 mg/kg once a day. On Day 11, the mouse was subjected to splenectomy and the spleen so obtained was untangled into its cells. To 5×10^7 cells/ml of the spleen cells so obtained, DNP-BSA (5 μg/ml) was added, followed by incubation at 37° C. for 24 hours. After incubation, 100 μl of the supernatant were collected and subjected to the measurement an IgE measuring kit (Yamasa Co., Ltd.). In order to determine IgG1, IgG2a and IgM, the absorbance of the incubated supernatant was measured by the EIA method and provided for comparison. The inhibition rate of IgE production was calculated according to the below-described formula. Inhibition rates of the IgG1, IgG2a and IgM production were similarly calculated, respectively. [formula]

IgG1 production = assay: Test 4 (comparison): inhibition of IgG1 production; type: in vivo, Balb/c mouse; conditions: 100 mg/kg orally once a day; for inhibition at 100 mg/kg: Mus musculus, po, Day 1 to Day 10, spleen cells, DNP-BSA 5 μg/ml, 24 hours, read-out: Inhibition rate of IgG1 production; for effects on the production of IgG1: in words
Method: as §1, §2

IL-4 production [1] = assay: Test 1: inhibition of IL-4 production in human T-cell strain ATL-16T(-) stimulated with PMA (R&D Systems EIA); type: cell-based; conditions: ATL-16T(-) 1×10^6 cells/0.5 ml/well, 20 nM PMA, 48 hours, read-out: Inhibition rate of IL-4 production; for inhibition at 10 µM: 10^-5 M; for inhibition at 1 µM: 10^-6 M; for inhibition at 0.1 µM: 10^-7 M; for inhibition at 0.01 µM: 10^-8 M
Procedure, shortened: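 ATL-16T(-) cells at 1×10^6 cells/0.5 ml/well (n=3) were stimulated with 20 nM PMA and given compound at the same time, then incubated 48 h at 37° C in 5% CO2. Supernatant IL-4 was measured by EIA, and percent inhibition was calculated.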

IgE production = assay: Test 4: inhibition of IgE production by spleen cells of orally treated sensitized mice; type: in vivo, Balb/c mouse; conditions: Mus musculus, po, 100 mg/kg orally once a day, Day 1 to Day 10, DNP-BSA 5 μg/ml, 24 hours, read-out: Inhibition rate of IgE production
Method: as §1, §2

IgG2a production = assay: Test 4 (comparison): inhibition of IgG2a production; type: in vivo, Balb/c mouse; conditions: 100 mg/kg orally once a day; for inhibition at 100 mg/kg: Mus musculus, po, Day 1 to Day 10, spleen cells, DNP-BSA 5 μg/ml, 24 hours, read-out: Inhibition rate of IgG2a production; for effects on the production of IgG2a: in words
Method: as §1, §2

IL-5 production = assay: Test 3: inhibition of IL-5 production in human PBMC stimulated with ConA; type: cell-based; conditions: 10^-6 M, 10 μg/ml ConA, 48 hours, read-out: Inhibition rate of IL-5 production
Procedure, shortened: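 Human PBMC from a normal volunteer, 1×10^6 cells/ml in AIM-V, stimulated with 10 μg/ml ConA alongside compound and incubated 48 h at 37 °C, 5% CO2. Supernatant IL-5 quantified by EIA; inhibition rate calculated from a formula.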

IL-4 production [2] = assay: Test 2: inhibition of IL-4 production in human T-cell strain ATL-16T(-) stimulated with PMA (Bio Source EIA); type: cell-based; conditions: ATL-16T(-) 5×10^5 cells/0.5 ml/well, 20 nM PMA, 48 hours, read-out: Inhibition rate of IL-4 production; for inhibition at 10 µM: 10^-5 M; for inhibition at 1 µM: 10^-6 M; for inhibition at 0.1 µM: 10^-7 M; for inhibition at 0.01 µM: 10^-8 M
Method: Test 2: Test on the inhibition of IL-4 production
Into individual wells of a 48-well microplate, the human T-cell strain ATL-16T(-) was poured at a concentration of 5×10^5 cells/0.5 ml/well (n=3), followed by the addition of a stimulator (20 nM of PMA) and a medicament at the same time. The resulting mixture was incubated in 5% CO2 at 37° C. for 48 hours. After incubation, 50 μl of the supernatant were collected and subjected to measurement by a human IL-4 EIA kit (BIO SOURCE, INC.). The inhibition rate was calculated according to the following formula. [formula]

| Compound | inhibition at 100 mg/kg (IgM production) [%] | inhibition at 100 mg/kg (IgG1 production) [%] | inhibition at 10 µM (IL-4 production [1]) [%] | inhibition at 1 µM (IL-4 production [1]) [%] | inhibition at 0.1 µM (IL-4 production [1]) [%] | inhibition at 0.01 µM (IL-4 production [1]) [%] | inhibition at 100 mg/kg (IgE production) [%] | inhibition at 100 mg/kg (IgG2a production) [%] | inhibition at 1 µM (IL-5 production) [%] | effects on the production of IgM (IgM production) | effects on the production of IgG1 (IgG1 production) | effects on the production of IgG2a (IgG2a production) | inhibition at 10 µM (IL-4 production [2]) [%] | inhibition at 1 µM (IL-4 production [2]) [%] | inhibition at 0.1 µM (IL-4 production [2]) [%] | inhibition at 0.01 µM (IL-4 production [2]) [%] |
| --- | --- | --- | --- | --- | --- | --- | --- | --- | --- | --- | --- | --- | --- | --- | --- | --- |
| COc1cnc(/C=C/C(=O)c2ccccc2)cc1O [Ex. 19, 4-hydroxy-5-methoxy-2-(3-oxo-3-phenyl-1-propenyl)-pyridine] | 1.2 | 8 | 106 | 98.1 | 95.1 | 83.8 | 30.6 | 0.9 | 94.8 | – | – | – | – | – | – | – |
| CCOC(=O)CCCCCCOc1cc(/C=C/C(=O)c2ccccc2OC)ncc1OC [Ex. 96, Ethyl 7-[5-methoxy-2-(3-(2-methoxyphenyl)-3-oxo-1-propenyl)-4-pyridyloxy]heptanoate hydrochloride] | 9.6 | 5 | – | – | – | – | 63.2 | 8.3 | 79.8 | No effects were observed | No effects were observed | No effects were observed | 102 | 76.2 | 78.6 | 78.2 |
| CCOC(=O)CCCCCOc1cc(/C=C/C(=O)c2ccccc2OC)ncc1OC [Ex. 94, Ethyl 6-[5-methoxy-2-(3-(2-methoxyphenyl)-3-oxo-1-propenyl)-4-pyridyloxy]hexanoate hydrochloride] | -1.6 | 7 | – | – | – | – | 63.4 | 2.8 | 95.2 | No effects were observed | No effects were observed | No effects were observed | 74.4 | 70.4 | 66.5 | 62.3 |
| CCOC(=O)CCCCCOc1cc(/C=C/C(=O)c2ccc(OC)cc2OC)ncc1OC [Ex. 92, Ethyl 6-[5-methoxy-2-(3-(2,4-dimethoxyphenyl)-3-oxo-1-propenyl)-4-pyridyloxy]hexanoate hydrochloride] | -8.3 | -4.3 | – | – | – | – | 61.2 | -6 | 96.4 | No effects were observed | No effects were observed | No effects were observed | 54.2 | 48.4 | 31 | 25.3 |
| COc1cnc(/C=C/C(=O)c2ccccc2OC)cc1OCCCCCC(=O)O [Ex. 105, 6-[5-Methoxy-2-(3-(2-methoxyphenyl)-3-oxo-1-propenyl)-4-pyridyloxy]hexanoicacid] | 0.5 | -4.2 | – | – | – | – | 47.7 | -1.8 | 71 | No effects were observed | No effects were observed | No effects were observed | 101 | 70.9 | 69.6 | 68.7 |
| CCOC(=O)CCCCCOc1cc(/C=C/C(=O)c2cc(OC)ccc2OC)ncc1OC [Ex. 88, Ethyl 6-[5-methoxy-2-(3-(2,5-dimethoxyphenyl)-3-oxo-1-propenyl)-4-pyridyloxy]hexanoate hydrochloride] | -4.2 | -6.9 | – | – | – | – | 22.7 | 8.6 | 61.6 | – | – | – | 74.2 | 74.4 | 71.7 | 68 |
| CCOC(=O)CCCOc1cc(/C=C/C(=O)c2cc(OC)ccc2OC)ncc1OC [Ex. 87, Ethyl 4-[5-methoxy-2-(3-(2,5-dimethoxyphenyl)-3-oxo-1-propenyl)-4-pyridyloxy]butanoate hydrochloride] | -0.1 | -3.4 | – | – | – | – | 30.5 | -8.1 | 90.2 | – | – | – | 78.3 | 73.4 | 72.2 | 69.3 |
| CCCCCC(=O)/C=C/c1cc(OCCCCCC(=O)OC)c(OC)cn1 [Ex. 15, Methyl 6-[5-methoxy-2-(3-oxo-1-octenyl)-4-pyridyloxy]hexanoate] | -5.4 | 9.9 | 76.8 | 58.9 | 55.9 | 49.1 | 23.5 | 4.6 | 79.2 | – | – | – | – | – | – | – |
| CCOC(=O)CCCCCOc1cc(/C=C/C(=O)c2ccc(OC)c(OC)c2)ncc1OC [Ex. 90, Ethyl 6-[5-methoxy-2-(3-(3,4-dimethoxyphenyl)-3-oxo-1-propenyl)-4-pyridyloxy]hexanoate hydrochloride] | -10.3 | 2.7 | – | – | – | – | 21.5 | 7 | 75.6 | – | – | – | 25.3 | 26.4 | 28.6 | 43.2 |
| CCOC(=O)CCCOc1cc(/C=C/C(=O)c2c(OC)cccc2OC)ncc1OC [Ex. 86, Ethyl 4-[5-methoxy-2-(3-(2,6-dimethoxyphenyl)-3-oxo-1-propenyl)-4-pyridyloxy]butanoate hydrochloride] | -2.7 | -1.1 | – | – | – | – | 35.9 | 6.2 | 71.9 | – | – | – | 94.6 | 80.1 | 77.6 | 73.6 |
| CCOC(=O)CCCCCOc1cc(/C=C/C(=O)C2CCCCC2)ncc1OC [Ex. 77, Ethyl 6-[2-(3-cyclohexyl-3-oxo-1-propenyl)-5-methoxy-4-pyridyloxy]hexanoatehydrochloride] | 1.2 | -6.3 | – | – | – | – | 55.8 | -3.9 | 82 | No effects were observed | No effects were observed | No effects were observed | 68.6 | 66 | 65 | 64.5 |
| COc1cnc(/C=C/C(=O)c2ccccc2)cc1OC [Ex. 1, 4,5-dimethoxy-2-(3-oxo-3-phenyl-1-propenyl)pyridine] | -8 | 1.6 | 97.5 | 87.9 | 80.3 | 59.9 | 42 | 4.6 | 95.3 | – | – | – | – | – | – | – |
